According to ChEMBL document CHEMBL5537115, “New broad-spectrum and potent antibacterial agents with dual-targeting mechanism: Promoting FtsZ polymerization and disrupting bacterial membranes” (Eur J Med Chem, 2024):
Calls of active or inactive are those of the source. The rule behind the calls is not given here.

How the values were obtained:
Staphylococcus aureus [1] = assay: Antibacterial activity against methicillin-resistant Staphylococcus aureus ATCC43300 assessed as bacterial growth inhibition incubated for 20 hrs by CLSI based broth microdilution method; format: functional
Enterococcus faecium = assay: Antibacterial activity against vancomycin-susceptible Enterococcus faecium ATCC19434 assessed as bacterial growth inhibition incubated for 20 hrs by CLSI based broth microdilution method; format: functional
Staphylococcus aureus [2] = assay: Antibacterial activity against erythromycin-susceptible Staphylococcus aureus ATCC25923 assessed as bacterial growth inhibition incubated for 20 hrs by CLSI based broth microdilution method; format: functional
Staphylococcus aureus [3] = assay: Antibacterial activity against Staphylococcus aureus clinical isolate incubated for 18 to 24 hrs; format: functional; details: time 18-24 hrs
Staphylococcus aureus [4] = assay: Antibacterial activity against methicillin-resistant Staphylococcus aureus ATCC43300 incubated for 18 to 20 hrs; format: functional; details: time 18-20 hrs
Bacillus subtilis [5] = assay: Antibacterial activity against penicillin-susceptible Bacillus subtilis ATCC9372 incubated for 18 to 24 hrs; format: functional; details: time 18-24 hrs
Staphylococcus aureus [6] = assay: Inhibition of biofilm formation of Staphylococcus aureus ATCC25923 at 0.5 ug/ml incubated for 20 hrs by crystal violet staining based analysis relative to control; format: functional
Staphylococcus aureus [7] = assay: Effect on proton gradient of cytoplasmic membrane in Staphylococcus aureus ATCC25923 at 1 ug/ml measured after 20 mins by diSC35 dye based analysis; format: functional, organism-based; details: Cytoplasm membrane, dose 1.0 µg/ml
Staphylococcus aureus [8] = assay: Antibacterial activity against Staphylococcus aureus clinical isolate assessed as bacterial growth inhibition incubated for 20 hrs by CLSI based broth microdilution method; format: functional
Enterococcus faecalis = assay: Antibacterial activity against vancomycin-susceptible Enterococcus faecalis ATCC29212 assessed as bacterial growth inhibition incubated for 20 hrs by CLSI based broth microdilution method; format: functional
Bacillus pumilus = assay: Antibacterial activity against penicillin-susceptible Bacillus pumilus CMCC63202 assessed as bacterial growth inhibition incubated for 20 hrs by CLSI based broth microdilution method; format: functional
Acinetobacter baumannii [9] = assay: Antibacterial activity against Acinetobacter baumannii ATCC19606 incubated for 18 to 24 hrs; format: functional; details: time 18-24 hrs
Escherichia coli [10] = assay: Induction of membrane potential depolarization in Escherichia coli ATCC25922 measured after 20 mins by diSC35 dye based spectroscopy; format: functional, organism-based
[11] = target: T1, Cell division protein FtsZ (Bacillus subtilis) (UniProt A5Z1V5); assay: Induction of FtsZ polymerization in Bacillus subtilis preincubated for 10 mins followed by GTP addition measured upto 30 mins by absorbance based assay; details: dose 2.5-10 µg/ml, time 40.0 min
T1 sequence (whole entry): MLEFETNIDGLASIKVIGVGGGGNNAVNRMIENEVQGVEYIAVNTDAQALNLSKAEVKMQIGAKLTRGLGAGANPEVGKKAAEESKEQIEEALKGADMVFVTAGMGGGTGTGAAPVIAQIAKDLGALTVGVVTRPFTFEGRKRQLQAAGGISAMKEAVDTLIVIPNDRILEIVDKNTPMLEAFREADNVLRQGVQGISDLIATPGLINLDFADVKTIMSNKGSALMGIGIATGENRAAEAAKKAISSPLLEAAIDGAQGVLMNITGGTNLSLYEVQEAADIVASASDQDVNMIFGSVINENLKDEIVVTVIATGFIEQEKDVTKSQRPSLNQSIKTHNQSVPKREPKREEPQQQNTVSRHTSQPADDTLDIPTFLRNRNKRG

Escherichia coli [12] = assay: Antibacterial activity against penicillin-susceptible Escherichia coli ATCC25922 assessed as bacterial growth inhibition incubated for 20 hrs by CLSI based broth microdilution method; format: functional
Staphylococcus aureus [13] = assay: Selectivity ratio of MBC for Staphylococcus aureus clinical isolate to MIC for Staphylococcus aureus clinical isolate; format: functional
Staphylococcus aureus [14] = assay: Antibacterial activity against erythromycin-susceptible Staphylococcus aureus ATCC25923 incubated for 18 to 24 hrs; format: functional; details: time 18-24 hrs
[15] = target: T1, Cell division protein FtsZ (Bacillus subtilis); assay: Induction of FtsZ polymerization in Bacillus subtilis at 2.5 to 10 ug/ml preincubated with compound followed by GTP addition by absorbance based assay; details: dose 2.5-10 µg/ml, time 40.0 min, TDE = time-dependent effect
Streptococcus pyogenes [16] = assay: Antibacterial activity against erythromycin-resistant Streptococcus pyogenes 2 clinical isolate assessed as bacterial growth inhibition incubated for 20 hrs by CLSI based broth microdilution method; format: functional
Escherichia coli [17] = assay: Antibacterial activity against wild-type Escherichia coli BW25113 assessed as bacterial growth inhibition incubated for 20 hrs by CLSI based broth microdilution method; format: functional
Escherichia coli [18] = assay: Disruption of outer membrane in Escherichia coli ATCC25922 at 16 ug/ml measured after 10 mins by NPN dye based analysis; format: functional, organism-based; details: dose 16.0 µg/ml
Staphylococcus aureus [19] = assay: Antibacterial activity against penicillin-resistant Staphylococcus aureus ATCC31007 assessed as bacterial growth inhibition incubated for 20 hrs by CLSI based broth microdilution method; format: functional
Escherichia coli [20] = assay: Disruption of inner membrane in Escherichia coli ATCC25922 by PI staining based analysis; format: functional, organism-based; details: time 12.0 min, TDE = time-dependent effect
Streptococcus pyogenes [21] = assay: Antibacterial activity against erythromycin-susceptible Streptococcus pyogenes 1 assessed as bacterial growth inhibition incubated for 20 hrs by CLSI based broth microdilution method; format: functional
Acinetobacter baumannii [22] = assay: Antibacterial activity against Acinetobacter baumannii ATCC19606 assessed as bacterial growth inhibition incubated for 20 hrs by CLSI based broth microdilution method; format: functional
Staphylococcus aureus [23] = assay: Induction of membrane potential depolarization in Staphylococcus aureus ATCC25923 measured after 20 mins by diSC35 dye based spectroscopy; format: functional, organism-based
Staphylococcus aureus [24] = assay: Inhibition of bacterial proliferation of Staphylococcus aureus ATCC25923 at 0.125 ug/ml measured for 24 hrs by time-kill assay; format: functional, organism-based; details: dose 0.125 µg/ml
Staphylococcus aureus [25] = assay: Bactericidal activity against Staphylococcus aureus ATCC25923 assessed as log reduction in bacterial growth at 0.125 ug/ml measured for 6 hrs by time-kill assay; format: functional; details: dose 0.125 µg/ml
[26] = Hemolytic activity in mouse erythrocytes at 16 ug/ml incubated for 1 hr by absorbance based assay; format: toxicity, cell-based, Erythrocyte; details: at 16 µg/mL, read-out: Activity
Staphylococcus aureus [27] = assay: Bactericidal activity against Staphylococcus aureus ATCC25923 measured for 24 hrs by time-kill assay; format: functional, organism-based; details: dose 0.125-0.5 µg/ml
Klebsiella pneumoniae = assay: Antibacterial activity against Klebsiella pneumoniae ATCC BAA-1902 assessed as bacterial growth inhibition incubated for 20 hrs by CLSI based broth microdilution method; format: functional
Staphylococcus aureus [28] = assay: Inhibition of biofilm formation of Staphylococcus aureus ATCC25923 incubated for 20 hrs by crystal violet staining based analysis; format: functional, organism-based
Staphylococcus aureus [29] = assay: Bactericidal activity against Staphylococcus aureus ATCC25923 assessed as log reduction in bacterial growth at 0.25 to 0.5 ug/ml measured for 9 to 12 hrs by time-kill assay; format: functional; details: dose 0.25-0.5 µg/ml; time 9-12 hrs
Bacillus subtilis [30] = assay: Antibacterial activity against penicillin-susceptible Bacillus subtilis ATCC9372 assessed as bacterial growth inhibition incubated for 20 hrs by CLSI based broth microdilution method; format: functional
Staphylococcus aureus [31] = assay: Disruption of inner membrane in Staphylococcus aureus ATCC25923 by PI staining based analysis; format: functional, organism-based; details: time 12.0 min, TDE = time-dependent effect
Staphylococcus aureus [32] = assay: Induction of resistance development in Staphylococcus aureus ATCC25923 assessed as fold increase in MIC at 0.5 times MIC measured after 32 days by multi-passage resistance assay relative to control; format: functional; details: time 32.0 day

C[n+]1cc(-c2ccccc2)c(/C=C/c2ccc(C(C)(C)C)cc2)cc1-c1ccc(C(C)(C)C)cc1.[I-]
MIC (Staphylococcus aureus [1]): 0.125 µg/mL | MIC (Enterococcus faecium): 0.125 µg/mL | MIC (Staphylococcus aureus [2]): 0.062 µg/mL | MBC (Staphylococcus aureus [3]): 0.125 µg/mL | MBC (Staphylococcus aureus [4]): 0.5 µg/mL | MBC (Bacillus subtilis [5]): 0.25 µg/mL | inhibition at 0.5 µg/mL (Staphylococcus aureus [6]): 6.06% | Activity (Staphylococcus aureus [7]): Active | MIC (Staphylococcus aureus [8]): 0.062 µg/mL | MIC (Enterococcus faecalis): 0.25 µg/mL | MIC (Bacillus pumilus): 0.062 µg/mL | MBC (Acinetobacter baumannii [9]): 1 µg/mL | Activity (Escherichia coli [10]): Dose-Dependent Effect | Activity [11]: Dose-Dependent Effect | MIC (Escherichia coli [12]): 4 µg/mL | Ratio (Staphylococcus aureus [13]): 2 | MBC (Staphylococcus aureus [14]): 0.25 µg/mL | Activity [15]: Tde | MIC (Streptococcus pyogenes [16]): 2 µg/mL | MIC (Escherichia coli [17]): 2 µg/mL | Activity (Escherichia coli [18]): Active | MIC (Staphylococcus aureus [19]): 1 µg/mL | Activity (Escherichia coli [20]): Tde | MIC (Streptococcus pyogenes [21]): 2 µg/mL | MIC (Acinetobacter baumannii [22]): 0.5 µg/mL | Activity (Staphylococcus aureus [23]): Dose-Dependent Effect | inhibition (Staphylococcus aureus [24]): inactive | Activity (Staphylococcus aureus [25]): 3.059 log10CFU/ml | hemolysis at 1 h, 16 ug/ml [26]: 6.37% | Activity (Staphylococcus aureus [27]): Dose-Dependent Effect | MIC (Klebsiella pneumoniae): 4 µg/mL | inhibition (Staphylococcus aureus [28]): Dose-Dependent Effect | Activity (Staphylococcus aureus [29]): 0 log10CFU/ml | MIC (Bacillus subtilis [30]): 0.125 µg/mL | Activity (Staphylococcus aureus [31]): Tde | fold change (FC) (Staphylococcus aureus [32]): 2
